# According to ChEMBL document CHEMBL2062520, “Synthesis and in vitro antimalarial activity of a series of bisquinoline and bispyrrolo[1,2a]quinoxaline compounds” (Eur J Med Chem, 2012):
# How the values were obtained:
# UACC-62 = experiment: Cytotoxicity against human UACC62 cells after 48 hrs by sulforhodamine B assay; type: functional; conditions: for GI50 / TGI / CC50: Homo sapiens, UACC-62, 48 h; for CC50: read-out: LC50 (the source's name)
# [1] = Selectivity index, ratio of IC50 for CHO cells to IC50 for chloroquine-sensitive Plasmodium falciparum D10; type: toxicity, cell-based; conditions: hamster, read-out: Ratio IC50
# Plasmodium falciparum [2] = experiment: Antimalarial activity against asexual erythrocyte stages of chloroquine-resistant Plasmodium falciparum Dd2; type: functional, organism-based
# MCF7 = experiment: Cytotoxicity against human MCF7 cells after 48 hrs by sulforhodamine B assay; type: functional; conditions: for GI50 / TGI / CC50: Homo sapiens, MCF7, 48 h; for CC50: read-out: LC50 (the source's name)
# TK-10 = experiment: Cytotoxicity against human TK10 cells after 48 hrs by sulforhodamine B assay; type: functional; conditions: for GI50 / TGI / CC50: Homo sapiens, TK-10, 48 h; for CC50: read-out: LC50 (the source's name)
# physchem = conditions: octanol/phosphate buffered saline
# Description: Octanol-phosphate buffered saline distribution coefficient, log D of the compound at 2 mg after 48 hrs by HPLC analysis
# Plasmodium falciparum [3] = experiment: Antimalarial activity against asexual erythrocyte stages of chloroquine-sensitive Plasmodium falciparum D10; type: functional, organism-based
# CHO = experiment: Cytotoxicity against CHO cells by MTT assay; type: cell-based; conditions: Cricetulus griseus
# [4] = Aqueous solubility of the compound in phosphate buffer at pH 5.5 after 24 hrs by HPLC analysis; type: physicochemical
# Plasmodium falciparum [5] = experiment: Resistant index, ratio of IC50 for chloroquine-resistant Plasmodium falciparum Dd2 to IC50 for chloroquine-sensitive Plasmodium falciparum D10; type: functional
SMILES,LC100 (UACC-62),GI50 (UACC-62),TGI (UACC-62),CC50 (UACC-62),selectivity ratio [1],IC50 (Plasmodium falciparum [2]),LC100 (MCF7),GI50 (MCF7),TGI (MCF7),CC50 (MCF7),LC100 (TK-10),GI50 (TK-10),TGI (TK-10),CC50 (TK-10),logD at 48 h (physchem),IC50 (Plasmodium falciparum [3]),IC50 (CHO),solubility at 24 h [4],Ratio IC50 (Plasmodium falciparum [5])
CN(CCCNc1ccnc2cc(Cl)ccc12)CCCNc1ccnc2cc(Cl)ccc12,>100 µM,0.36 µM,0.64 µM,0.92 µM,211,0.0711 µM,>100 µM,0.39 µM,0.69 µM,1.2 µM,45.12 µM,0.54 µM,1 µM,5.61 µM,0.29,0.0374 µM,7.8 µM,32.9 mM,1.9
c1ccc2c(c1)nc(NCCNCCNc1nc3ccccc3n3cccc13)c1cccn12,–,–,–,–,–,1.9 µM,–,–,–,–,–,–,–,–,0.39,0.554 µM,–,27.5 mM,3.4
Clc1ccc2c(NCCNCCNCCNc3ccnc4cc(Cl)ccc34)ccnc2c1,>100 µM,2.87 µM,5.3 µM,7.74 µM,93,0.0355 µM,>100 µM,0.76 µM,3.53 µM,7.37 µM,>100 µM,5.89 µM,5.36 µM,7.71 µM,0.28,0.0877 µM,8.01 µM,38.7 mM,0.4
Clc1ccc2c(NCCCNCCNCCCNc3ccnc4cc(Cl)ccc34)ccnc2c1,>100 µM,1.06 µM,4.09 µM,7.11 µM,102,0.0495 µM,>100 µM,0.38 µM,1.65 µM,6.43 µM,>100 µM,2.1 µM,4.74 µM,7.38 µM,0.3,0.129 µM,13 µM,18.9 mM,0.4
Cc1cccc2nccc(NCCNCCNc3ccnc4cccc(C)c34)c12,–,–,–,–,–,0.507 µM,–,–,–,–,–,–,–,–,0.05,0.741 µM,–,29.5 mM,0.7
Cc1cccc2nccc(NCCCNCCNc3ccnc4cccc(C)c34)c12,–,–,–,–,–,0.105 µM,–,–,–,–,–,–,–,–,0.32,0.214 µM,–,28.2 mM,0.5
Cc1cccc2nccc(NCCCNCCCNc3ccnc4cccc(C)c34)c12,–,–,–,–,1024,0.0802 µM,–,–,–,–,–,–,–,–,0.14,0.129 µM,132 µM,27.9 mM,0.6
Cc1cccc2nccc(NCCCN(C)CCCNc3ccnc4cccc(C)c34)c12,–,–,–,–,–,1.91 µM,–,–,–,–,–,–,–,–,0.16,0.185 µM,–,31.2 mM,10.4
Cc1cccc2nccc(NCCNCCNCCNc3ccnc4cccc(C)c34)c12,–,–,–,–,–,1.1 µM,–,–,–,–,–,–,–,–,0.4,1.42 µM,–,38.9 mM,0.8
Cc1cccc2nccc(NCCCNCCNCCCNc3ccnc4cccc(C)c34)c12,–,–,–,–,187,0.608 µM,–,–,–,–,–,–,–,–,0.34,0.922 µM,174 µM,36.5 mM,0.7
c1ccc2c(c1)nc(NCCCNCCNc1nc3ccccc3n3cccc13)c1cccn12,–,–,–,–,14,1.38 µM,–,–,–,–,–,–,–,–,0.34,0.199 µM,2.8 µM,28.6 mM,6.9
c1ccc2c(c1)nc(NCCCNCCCNc1nc3ccccc3n3cccc13)c1cccn12,–,–,–,–,51,0.356 µM,–,–,–,–,–,–,–,–,0.32,0.0753 µM,3.8 µM,24.1 mM,4.7
c1ccc2c(c1)nc(NCCNCCNCCNc1nc3ccccc3n3cccc13)c1cccn12,–,–,–,–,4.5,4.17 µM,–,–,–,–,–,–,–,–,-0.02,1.8 µM,8.1 µM,34 mM,2.3
Clc1ccc2c(NCCCNCCNc3ccnc4cc(Cl)ccc34)ccnc2c1,>100 µM,2.07 µM,4.89 µM,7.72 µM,47,0.0564 µM,>100 µM,0.6 µM,2.79 µM,7.21 µM,>100 µM,1.23 µM,4.25 µM,7.27 µM,0.3,0.0661 µM,3.1 µM,23.5 mM,0.9
Clc1ccc2c(NCCCNCCCNc3ccnc4cc(Cl)ccc34)ccnc2c1,–,–,–,–,–,–,–,–,–,–,–,–,–,–,0.28,–,–,28.9 mM,–
Clc1ccc2c(NCCNCCNc3ccnc4cc(Cl)ccc34)ccnc2c1,–,–,–,–,–,–,–,–,–,–,–,–,–,–,0.3,–,–,32 mM,–
CN(CCCNc1nc2ccccc2n2cccc12)CCCNc1nc2ccccc2n2cccc12,–,–,–,–,39,0.724 µM,–,–,–,–,–,–,–,–,0.36,0.112 µM,4.3 µM,30.2 mM,6.5
CC[C@H]1CN2CCc3cc(OC)c(OC)cc3[C@@H]2C[C@@H]1C[C@H]1NCCc2cc(OC)c(OC)cc21 [EMETINE],–,–,–,–,–,–,–,–,–,–,–,–,–,–,–,–,0.3 µM,–,–
